As usually defined, the melting point is the temperature, or range, at which the solid turns liquid.

Like-named read-outs stand apart in the source and are kept apart here.

Pest or weed control, inhibition of growth and melting point data for 14 compounds are collected here from patent publication US8507509B2, “Saturated and insaturated bi- or tricyclic aryloxyacetamine derivatives and their use as fungicides” (Syngenta Crop Protection LLC, priority 2007, dated 2013).

Data set [1] relates to Plasmopara viticola. The data set is described as follows: Plasmopara viticola (downy mildew of grapevine), grapevine leaf disk assay, preventive. The settings on record: foliar, 168 h, read-out: control of fungal infection, Plasmopara viticola. The data set is classed as in vivo.
Data set [2] deals with Phytophthora infestans. Kind of data set: whole plant or invertebrate. In kind it is in vivo. The settings on record: in Solanum lycopersicum, foliar, 96 h, read-out: control of fungal infection, Phytophthora infestans.
Data set [3] relates to Erysiphe graminis f.sp. tritici. The data set is described as follows: Erysiphe graminis f.sp. tritici (wheat powdery mildew), wheat leaf segment assay, preventive. To be noted: Blumeria graminis, foliar, 96 h, read-out: control of fungal infection, Etysiphe graminis f.sp. tritici. In kind it is in vivo.
The test system of data set [4] is Septoria tritici. Kind of data set: Septoria tritici (leaf blotch), liquid culture growth inhibition in nutrient broth. In kind it is cell-based. To be noted: Zymoseptoria tritici, read-out: control of fungal infection, Septoria tritici.
Data set [5] concerns Fusarium culmorum. Kind of data set: Fusarium culmorum (root rot), liquid culture growth inhibition in nutrient broth. In kind it is cell-based. To be noted: PDB broth, 24 C, inhibition of growth determined photometrically after 48 hrs, read-out: control of fungal infection, Fusarium culmorum. The method in brief: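 Fusarium culmorum conidia from cryogenic storage were mixed into potato dextrose broth and added to compound pre-dispensed from DMSO (diluted in 0.025% Tween20). Incubated at 24 C in the dark; growth inhibition read photometrically after 48 hrs.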

The subject of data set [6] is Pythium ultimum. Kind of data set: Pythium ultimum (Damping off), liquid culture growth inhibition in potato dextrose broth. In kind it is cell-based. The settings on record: Globisporangium ultimum, read-out: control of fungal infection, Pythium ultimum.
Data set [7] has as its system Botrytis cinerea. Kind of data set: Botrytis cinerea (grey mould), bean leaf disk assay, preventive. In kind it is in vivo. To be noted: foliar, 96 h, read-out: control of fungal infection, Botrytis cinerea.
Data set [8] has as its system Septoria nodorum. Kind of data set: Septoria nodorum (wheat glume blotch), wheat leaf segment assay, preventive. The settings on record: Parastagonospora nodorum, foliar, 96 h, read-out: control of fungal infection, Septoria nodorum. In kind it is in vivo.
Data set [9] deals with Puccinia recondita f.sp. tritici. The data set is described as follows: Puccinia recondita f.sp. tritici (wheat brown rust), wheat leaf segment assay, preventive. The data set is classed as in vivo. The settings on record: foliar, 216 h, read-out: control of fungal infection, Puccinia recondite f.sp. tritici.
[10] abbreviates: 200 ppm, grapevine leaf disks, assessed seven days after inoculation.
The mark [11] stands for this setting: 200 ppm, wheat leaf segments, assessed four days after inoculation.
Setting [12] is: 200 ppm, PDB broth, 24 C, inhibition of growth determined photometrically after 72 hrs.
[13] abbreviates: 20 ppm, potato dextrose broth, 24° C., inhibition of growth determined photometrically after 48 hours.
[14] abbreviates: 200 ppm, bean leaf disks, assessed four days after inoculation.
Where [15] appears, read: 200 ppm, wheat leaf segments, assessed nine days after inoculation.

In turn, `CON=CC(C)(C#N)NC(=O)C(Oc1cc(C)c2ncc(Br)cc2c1)SC` (stereo not shown) [Compound No. 54, 2-(3-Bromo-8-methyl-quinolin-6-yloxy)-N-(1-cyano-2-methoxyimino-1-methyl-ethyl)-2-methylsulfanyl-acetamide] showed a melting point of 156 to 159 °C. For the same compound, in data set [1] (setting [10]), the pest or weed control at 200 ppm is no less than 60%. The pest or weed control at 200 ppm in [2] was no less than 60%. For the same compound, in data set [3] (setting [11]), the pest or weed control at 200 ppm was no less than 60%. Moreover, the inhibition of growth at 200 ppm in data set [4] (setting [12]) was no less than 60%. In [5], the inhibition of growth at 200 ppm is no less than 60%. In data set [6] (setting [13]), the inhibition of growth at 20 ppm is no less than 60%.
Turning to `CON=CC(C)(C#N)NC(=O)C(Oc1ccc2ncc(C#C[Si](C)(C)C)cc2c1)SC` (stereo not shown) [Compound No. 58, N-(1-Cyano-2-methoxyimino-1-methyl-ethyl)-2-methylsulfanyl-2-(3-trimethylsilanylethynyl-quinolin-6-yloxy)-acetamide], the melting point lay in the range of 69 to 75 °C. Further, the pest or weed control at 200 ppm in [1] (setting [10]) is no less than 60%. The pest or weed control at 200 ppm in data set [2] was no less than 60%. In addition, the pest or weed control at 200 ppm in data set [3] (setting [11]) was no less than 60%. In addition, the pest or weed control at 200 ppm in data set [7] (setting [14]) was no less than 60%. The pest or weed control at 200 ppm in [8] (setting [11]) was no less than 60%. In data set [4] (setting [12]), the inhibition of growth at 200 ppm was no less than 60%. For the same compound, the inhibition of growth at 20 ppm in data set [6] (setting [13]) was no less than 60%.
In the case of `CCC(Oc1ccc2ncc(Br)cc2c1)C(=O)NC(C)(C#N)C=NOC` (stereo not shown) [Compound No. 60, 2-(3-Bromo-quinolin-6-yloxy)-N-(1-cyano-2-methoxyimino-1-methyl-ethyl)-butyramide], the melting point lay within 152 to 155 °C. Further, the pest or weed control at 200 ppm in [2] was no less than 60%. Moreover, the pest or weed control at 200 ppm in data set [7] (setting [14]) is no less than 60%. Also, the inhibition of growth at 200 ppm in data set [4] (setting [12]) is no less than 60%. Besides, in data set [6] (setting [13]), the inhibition of growth at 20 ppm is no less than 60%.
As for `C#Cc1cnc2ccc(OC(CC)C(=O)NC(C)(C#N)C=NOC)cc2c1` (stereo not shown) [Compound No. 61, N-(1-Cyano-2-methoxyimino-1-methyl-ethyl)-2-(3-ethynyl-quinolin-6-yloxy)-butyramide], the pest or weed control at 200 ppm in data set [1] (setting [10]), in data set [2], in data set [3] (setting [11]), in [7] (setting [14]), in data set [9] (setting [15]) and in data set [8] (setting [11]) was no less than 60% in each case. The inhibition of growth at 200 ppm in data set [4] (setting [12]) and in data set [5] was no less than 60% in each case. In addition, in [6] (setting [13]), the inhibition of growth at 20 ppm was no less than 60%.
`COCC(C)(C=NOC)NC(=O)C(Oc1ccc2ncc(Br)cc2c1)SC` (stereo not shown) [Compound No. 64, 2-(3-Bromo-quinolin-6-yloxy)-N-[2-methoxy-1-(methoxyimino-methyl)-1-methyl-ethyl]-2-methylsulfanyl-acetamide]: the pest or weed control at 200 ppm in [1] (setting [10]), in data set [2], in [3] (setting [11]), in data set [7] (setting [14]), in data set [9] (setting [15]) and in data set [8] (setting [11]) was no less than 60% throughout. Also, the inhibition of growth at 200 ppm in data set [4] (setting [12]) and in data set [5] was no less than 60% in each case. In addition, the inhibition of growth at 20 ppm in [6] (setting [13]) is no less than 60%.
As for `C#Cc1cnc2ccc(OC(SC)C(=O)NC(C)(C=NOC)COC)cc2c1` (stereo not shown) [Compound No. 65, 2-(3-Ethynyl-quinolin-6-yloxy)-N-(2-methoxyimino-1-methoxymethyl-1-methyl-ethyl)-2-methylsulfanyl-acetamide], the pest or weed control at 200 ppm in [1] (setting [10]), in data set [2], in data set [3] (setting [11]), in data set [7] (setting [14]), in data set [9] (setting [15]) and in data set [8] (setting [11]) was no less than 60% throughout. The inhibition of growth at 200 ppm in data set [4] (setting [12]) and in [5] was no less than 60% throughout. Also, in data set [6] (setting [13]), the inhibition of growth at 20 ppm was no less than 60%.
For the compound `C#Cc1cnc2ccc(OC(SC)C(=O)NC(C)(C#C)C=NOC)cc2c1` (stereo not shown) [Compound No. 69, 2-(3-Ethynyl-quinolin-6-yloxy)-N-[1-(methoxyimino-methyl)-1-methyl-prop-2-ynyl]-2-methylsulfanyl-acetamide], the pest or weed control at 200 ppm in [1] (setting [10]), in data set [2], in data set [3] (setting [11]), in data set [7] (setting [14]), in [9] (setting [15]) and in data set [8] (setting [11]) was no less than 60% throughout. Further, the inhibition of growth at 200 ppm in [4] (setting [12]) and in [5] was no less than 60% each time. Also, the inhibition of growth at 20 ppm in [6] (setting [13]) was no less than 60%.
The compound `CON=CC(C)(C)NC(=O)C(OC)Oc1cc(C)c2ncc(Br)cc2c1` (stereo not shown) [Compound No. 71, 2-(3-Bromo-8-methyl-quinolin-6-yloxy)-2-methoxy-N-(2-methoxyimino-1,1-dimethyl-ethyl)-acetamide] returned a melting point of 130 to 132 °C. The pest or weed control at 200 ppm in data set [1] (setting [10]) was no less than 60%. Moreover, the pest or weed control at 200 ppm in data set [3] (setting [11]) was no less than 60%. Moreover, the pest or weed control at 200 ppm in data set [7] (setting [14]) is no less than 60%. Besides, the inhibition of growth at 200 ppm in [4] (setting [12]) was no less than 60%. Besides, in data set [5], the inhibition of growth at 200 ppm was no less than 60%.
Regarding `C#Cc1cnc2ccc(OC(OC)C(=O)NC(C)(C)C=NOC)cc2c1` (stereo not shown) [Compound No. 76, 2-(3-Ethynyl-quinolin-6-yloxy)-2-methoxy-N-(2-methoxyimino-1,1-dimethyl-ethyl)-acetamide], the pest or weed control at 200 ppm in data set [1], in data set [2], in [3], in data set [7], in [9] and in data set [8] was no less than 60% throughout. Further, the inhibition of growth at 200 ppm in data set [4] (72 h) and in [5] was no less than 60% in each case. In [6] (48 h), the inhibition of growth at 20 ppm was no less than 60%.
As to `CON=CC(C)(C)NC(=O)C(Oc1cc(Cl)c2ccsc2c1)SC` (stereo not shown) [Compound No. 81, 2-(4-Chloro-benzo[b]thiophen-6-yloxy)-N-(2-methoxyimino-1,1-dimethyl-ethyl)-2-methylsulfanyl-acetamide], the melting point lay in the range of 120 to 122 °C. Further, in data set [1] (setting [10]), the pest or weed control at 200 ppm is no less than 60%. In addition, the pest or weed control at 200 ppm in data set [7] (setting [14]) was no less than 60%. The inhibition of growth at 200 ppm in data set [4] (setting [12]) is no less than 60%.
`CON=CC(C)(C)NC(=O)C(Oc1ccc2ocnc2c1)SC` (stereo not shown) [Compound No. 88, 2-(benzooxazol-5-yloxy)-N-(2-methoxyimino-1,1-dimethyl-ethyl)-2-methylsulfanyl-acetamide] yielded a melting point of 95 to 96 °C. Also, the inhibition of growth at 20 ppm in [6] (setting [13]) is no less than 60%.
Turning to `CON=CC(C)(C)NC(=O)C(Oc1cc(Cl)c2ncc(Cl)cc2c1)SC` (stereo not shown) [Compound No. 90, 2-(3,8-Dichloro-quinolin-6-yloxy)-N-(2-methoxyimino-1,1-dimethyl-ethyl)-2-methylsulfanyl-acetamide], the melting point lay within 158 to 161 °C. Further, the pest or weed control at 200 ppm in data set [1] (setting [10]) is no less than 60%. Besides, the pest or weed control at 200 ppm in data set [3] (setting [11]) is no less than 60%. Moreover, the pest or weed control at 200 ppm in data set [7] (setting [14]) was no less than 60%. The inhibition of growth at 200 ppm in data set [4] (setting [12]) is no less than 60%. Besides, the inhibition of growth at 20 ppm in data set [6] (setting [13]) is no less than 60%.
Regarding `CON=CC(C)(C)NC(=O)C(Oc1cc(C)c2ncncc2c1)SC` (stereo not shown) [Compound No. 91, N-(2-Methoxyimino-1,1-dimethyl-ethyl)-2-(8-methyl-quinazolin-6-yloxy)-2-methylsulfanyl-acetamide], the melting point fell in the range of 109 to 112 °C. For the same compound, in [1] (setting [10]), the pest or weed control at 200 ppm is no less than 60%. Further, the pest or weed control at 200 ppm in data set [2] was no less than 60%. Also, the pest or weed control at 200 ppm in data set [7] (setting [14]) was no less than 60%. Also, the inhibition of growth at 20 ppm in [6] (setting [13]) is no less than 60%.
With `C#Cc1cnc2ccc(OC(SC)C(=O)NC(C)(C)CC=NOC)cc2c1` (stereo not shown) [Compound No. 95, 2-(3-Ethynyl-quinolin-6-yloxy)-N-(3-methoxyimino-1,1-dimethyl-propyl)-2-methylsulfanyl-acetamide], the pest or weed control at 200 ppm in data set [1] (setting [10]), in data set [2], in [3] (setting [11]), in data set [7] (setting [14]), in data set [9] (setting [15]) and in data set [8] (setting [11]) was no less than 60% in each case. For the same compound, the inhibition of growth at 200 ppm in data set [4] (setting [12]) and in data set [5] was no less than 60% each time. Also, the inhibition of growth at 20 ppm in [6] (setting [13]) was no less than 60%.
